Biological target: T1, S1P5 (Homo sapiens, UniProt Q9H228)
T1 construct: expressed in transfected cells; host or cells: CHO cells (membranes)
Assay: [35S]-GTPγS functional binding assay on CHO-S1P5 membranes
Format: biochemical
Details: membranes of CHO cells expressing recombinant S1P5 receptors; measure of S1P5 agonism
Method: CHO cells expressing recombinant S1P5 receptors were cultured in 500 cm^2 culture trays and, once confluent, rinsed and detached with cell-lifting buffer (10 mM HEPES, 154 mM NaCl, 6.85 mM EDTA, pH 7.4). Cells were then pelleted by centrifugation, resuspended, and homogenized in membrane preparation buffer (10 mM HEPES and 10 mM EDTA, pH 7.4) using a Polytron PT 1200E homogenizer (Kinematica, Luzern, Switzerland). Cellular proteins were pelleted by centrifugation at 48,000×g at 4° C. for 30 minutes. The resulting supernatant was discarded, and the pellet was re-suspended again in membrane preparation buffer, homogenized for a second time, and then centrifuged again as described above. The final cellular protein pellet was suspended in ice cold resuspension buffer (10 mM HEPES and 0.1 mM EDTA, pH 7.4), divided into aliquots, and stored at −80° C. until use.
Functional binding assays for [^35S]-GTPγS were performed in 96-well non-binding surface plates with a final volume of 200 μL. The test compounds were serially diluted in DMSO and added to assay plates using a Tecan D300E digital printer with a total volume of 0.4 μL. The control sphingosine-1-phosphate (S1P) was prepared separately by preparing a 400 μM stock solution from a 100 nmol pellet of SIP in 10 mM Na2CO3 with 2% s-cyclodextrin. The serial dilution of S1P was done using complete assay buffer (20 mM HEPES, 10 mM MgCl2, 100 mM NaCl, 1 mM EDTA, 0.1% fatty acid free bovine serum albumin (BSA), and 30 μg/mL saponin, pH 7.4) and transferred to wells already containing 0.4 μL DMSO. All the wells were then loaded to a total volume of 40 μL of complete assay buffer, except the non-specific binding (NSB) wells. For NSB wells, 40 μL/well of 50 μM GTPγS (Sigma Aldrich, cat #G8634, St. Louis, MO) was added to wells containing 0.4 μL of DMSO. The assay was started by the addition of 120 μL/well of CHO-S1P receptor membrane solution containing 40 μg/mL of membrane protein, 16.67 μM guanosine diphosphate (GDP; Sigma Aldrich, cat #G7127, St. Louis, MO), and 2.5 mg/mL of WGA PVT SPA beads in complete buffer. Assay plates were then sealed and incubated at room temperature with gentle agitation for 30 minutes. Next, 40 μL/well of 1 nM of [^35S]-GTPγS (PerkinElmer, cat #NEG030X250UC, Waltham, MA) in basic assay buffer (20 mM HEPES, 10 mM MgCl2, 100 mM NaCl, and 1 mM EDTA, pH 7.4) was added to the assay plates to yield a final concentration of […] and the plates were further incubated for 40 minutes at room temperature with gentle agitation. The assay was terminated by centrifugation of the plates at 1000 rpm for 3 minutes using an Eppendorf 5810R centrifuge (Eppendorf, Hamburg, Germany) and G protein bound radioactivity was quantitated using a MicroBeta2 microplate scintillation counter (PerkinElmer, Waltham, MA). As G protein bound radioactivity directly correlates to receptor activation and coupling to the G protein, this assay is a measure of S1P5 agonism.

T1 sequence (Q9H228 whole entry, species assumed): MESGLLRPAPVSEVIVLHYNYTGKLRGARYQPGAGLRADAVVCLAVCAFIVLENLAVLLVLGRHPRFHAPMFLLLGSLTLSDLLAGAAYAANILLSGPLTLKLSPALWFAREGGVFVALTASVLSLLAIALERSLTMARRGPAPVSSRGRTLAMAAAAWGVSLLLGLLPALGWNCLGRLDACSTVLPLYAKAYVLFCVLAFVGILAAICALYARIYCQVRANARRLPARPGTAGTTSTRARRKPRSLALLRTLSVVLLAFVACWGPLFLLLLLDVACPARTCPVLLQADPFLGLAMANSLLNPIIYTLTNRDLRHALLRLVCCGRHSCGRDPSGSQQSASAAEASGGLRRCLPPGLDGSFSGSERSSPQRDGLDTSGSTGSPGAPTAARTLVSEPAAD

SMILES | EC50
O=C(O)C1CCN(C2CCc3cc(CCc4ccccc4Cl)ccc32)CC1 (single isomer, unassigned) [Compound 25a, 1-(5-(2-chlorophenethyl)-2,3-dihydro-1H-inden-1-yl)piperidine-4-carboxylic acid] | 10 to 100 nM
CC(C)c1ccc(-c2ccc3c(c2)CCC3N2CCC(C(=O)O)CC2)cc1Cl (stereo not shown) [Compound 33, 1-(5-(3-chloro-4-isopropylphenyl)-2,3-dihydro-1H-inden-1-yl)piperidine-4-carboxylic acid] | ≤ 10 nM
O=C(O)C1CCN(C2CCc3cc(-c4cccc5c4CCC5)ccc32)CC1 (single isomer, unassigned) [Compound 45, 1-(2,2′,3,3′-tetrahydro-1H,1′H-[4,5′-biinden]-1′-yl)piperidine-4-carboxylic acid] | 100 to 1000 nM
O=C(O)C1CCN(C2CCc3cc(CCc4cccc(Cl)c4)ccc32)CC1 (single isomer, unassigned) [Compound 27a, 1-(5-(3-chlorophenethyl)-2,3-dihydro-1H-inden-1-yl)piperidine-4-carboxylic acid] | ≤ 10 nM
O=C(O)[C@@H]1CCN(C2CCc3cc(-c4ccc(C5CC5)c(Cl)c4)ccc32)C1 (single isomer, unassigned) [Compound 34b] | ≤ 10 nM
O=C(O)C1CCN(C2CCc3cc(C#Cc4cccc(F)c4)ccc32)CC1 (single isomer, unassigned) [Compound 4b, 1-(5-((3-fluorophenyl)ethynyl)-2,3-dihydro-1H-inden-1-yl)piperidine-4-carboxylic acid] | ≤ 10 nM
O=C(O)[C@H]1CCN(C2CCc3cc(C#Cc4cccc(F)c4)ccc32)C1 (single isomer, unassigned) [Compound 13a] | 10 to 100 nM
O=C(O)C1(F)CCN(C2CCc3cc(C#Cc4c(Cl)cccc4Cl)ccc32)CC1 (single isomer, unassigned) [Compound 3a, 1-(5-((2,6-dichlorophenyl)ethynyl)-2,3-dihydro-1H-inden-1-yl)-4-fluoropiperidine-4-carboxylic acid] | ≤ 10 nM
O=C(O)C1CN(C2CCc3cc(C#Cc4cc(F)ccc4F)ccc32)C1 (single isomer, unassigned) [Compound 20, 1-(5-((2,5-difluorophenyl)ethynyl)-2,3-dihydro-1H-inden-1-yl)azetidine-3-carboxylic acid] | ≤ 10 nM
O=C(O)[C@H]1CCN(C2CCc3cc(-c4ccc(C5CC5)c(Cl)c4)ccc32)C1 (single isomer, unassigned) [Compound 35b] | 10 to 100 nM
O=C(O)C1CCN(C2CCc3cc(CCc4cccc(F)c4)ccc32)CC1 (single isomer, unassigned) [Compound 26b, 1-(5-(3-fluorophenethyl)-2,3-dihydro-1H-inden-1-yl)piperidine-4-carboxylic acid] | 10 to 100 nM
O=C(O)C1CCN(C2CCc3cc(CCc4cccc(F)c4)ccc32)CC1 (single isomer, unassigned) [Compound 26a, 1-(5-(3-fluorophenethyl)-2,3-dihydro-1H-inden-1-yl)piperidine-4-carboxylic acid] | 100 to 1000 nM
O=C(O)C1CCN(C2CCc3cc(CCc4c(Cl)cccc4Cl)ccc32)CC1 (single isomer, unassigned) [Compound 22a, 1-(5-(2,6-dichlorophenethyl)-2,3-dihydro-1H-inden-1-yl)piperidine-4-carboxylic acid] | ≤ 10 nM
O=C(O)C1CCN(C2CCc3cc(C#Cc4ccccc4F)ccc32)CC1 (single isomer, unassigned) [Compound 6a, 1-(5-((2-fluorophenyl)ethynyl)-2,3-dihydro-1H-inden-1-yl)piperidine-4-carboxylic acid] | 10 to 100 nM
O=C(O)[C@H]1CCN(C2CCc3cc(-c4ccc(C5CC5)c(F)c4)ccc32)C1 (single isomer, unassigned) [Compound 37a] | 100 to 1000 nM
O=C(O)C1CC2(C1)CN(C1CCc3cc(C#Cc4c(Cl)cccc4Cl)ccc31)C2 (stereo not shown) [Compound 21, 2-(5-((2,6-dichlorophenyl)ethynyl)-2,3-dihydro-1H-inden-1-yl)-2-azaspiro[3.3]heptane-6-carboxylic acid] | 10 to 100 nM
O=C(O)C1CN(C2CCc3cc(-c4ccc(C5CC5)c(Cl)c4)ccc32)C1 (single isomer, unassigned) [Compound 30b, 1-(5-(3-chloro-4-cyclopropylphenyl)-2,3-dihydro-1H-inden-1-yl)azetidine-3-carboxylic acid] | ≤ 10 nM
O=C(O)C1CCN(C2CCc3cc(-c4ccc5ocnc5c4)ccc32)CC1 (single isomer, unassigned) [Compound 42, 1-(5-(benzo[d]oxazol-5-yl)-2,3-dihydro-1H-inden-1-yl)piperidine-4-carboxylic acid] | 1000 to 10000 nM
O=C(Cc1c(Cl)cccc1Cl)c1ccc2c(c1)CCC2N1CCC(C(=O)O)CC1 (single isomer, unassigned) [Compound 23, 1-(5-(2-(2,6-dichlorophenyl)acetyl)-2,3-dihydro-1H-inden-1-yl)piperidine-4-carboxylic acid] | 10 to 100 nM
O=C(O)[C@@H]1CCCCN1C1CCc2cc(C#Cc3cccc(F)c3)ccc21 (single isomer, unassigned) [Compound 8a] | 100 to 1000 nM
O=C(O)[C@@H]1CCN(C2CCc3cc(-c4ccc(C5CC5)c(F)c4)ccc32)C1 (single isomer, unassigned) [Compound 36a] | ≤ 10 nM
O=C(O)C1CN(C2CCc3cc(-c4ccc(C5CC5)c(F)c4)ccc32)C1 (single isomer, unassigned) [Compound 31a, 1-(5-(4-cyclopropyl-3-fluorophenyl)-2,3-dihydro-1H-inden-1-yl)azetidine-3-carboxylic acid] | ≤ 10 nM
O=C(O)[C@H]1CCCCN1C1CCc2cc(C#Cc3cccc(F)c3)ccc21 (single isomer, unassigned) [Compound 9b] | 1000 to 10000 nM
O=C(O)C1CCN(C2CCc3cc(CCc4cccc(Cl)c4)ccc32)CC1 (single isomer, unassigned) [Compound 27b, 1-(5-(3-chlorophenethyl)-2,3-dihydro-1H-inden-1-yl)piperidine-4-carboxylic acid] | 100 to 1000 nM
O=C(O)C1(F)CCN(C2CCc3cc(C#Cc4c(Cl)cccc4Cl)ccc32)CC1 (single isomer, unassigned) [Compound 3b, 1-(5-((2,6-dichlorophenyl)ethynyl)-2,3-dihydro-1H-inden-1-yl)-4-fluoropiperidine-4-carboxylic acid] | ≤ 10 nM
O=C(O)C1CCN(C2CCc3cc(-c4ccc5c(c4)CCO5)ccc32)CC1 (single isomer, unassigned) [Compound 43, 1-(5-(2,3-dihydrobenzofuran-5-yl)-2,3-dihydro-1H-inden-1-yl)piperidine-4-carboxylic acid] | 100 to 1000 nM
O=C(O)C1CCN(C2CCc3cc(-c4ccc(C5CC5)c(Cl)c4)ccc32)CC1 (single isomer, unassigned) [Compound 32b, 1-(5-(3-chloro-4-cyclopropylphenyl)-2,3-dihydro-1H-inden-1-yl)piperidine-4-carboxylic acid] | ≤ 10 nM
O=C(O)[C@]12C[C@H]1CN(C1CCc3cc(C#Cc4c(Cl)cccc4Cl)ccc31)C2 (stereo partly drawn) [Compound 15, (1R,5R)-3-(5-((2,6-dichlorophenyl)ethynyl)-2,3-dihydro-1H-inden-1-yl)-3-azabicyclo[3.1.0]-hexane-1-carboxylic acid] | ≤ 10 nM

Source: patent US12624003B2, “Carboxylic acid containing indanyl compounds for the treatment of neurodegenerative diseases” (Celgene Corporation, priority 2020, dated 2026)
